Data reported in patent publication US20030170239A1, “Immunotherapeutic method to prevent islet cell rejection” (priority 2000, published 2003).

Legend:
[1] = system: pig islet xenograft in Lewis rats; assay: Immunohistochemical analysis of pig islet xenograft, non-diabetic recipients (Example 1); assay type: in vivo; parameters: key to Insulin staining of graft: 0 = absent; + = single cell only; ++ = cell groups; +++ = large cell groups; key to OX33 (B cells) leukocytic infiltration (IHC) / ED1 (CD68) leukocytic infiltration (IHC) / CD3 (Tcells) leukocytic infiltration (IHC) / CD8 leukocytic infiltration (IHC) / CD4 leukocytic infiltration (IHC): 0 = absent; + = single or few; ++ = moderate; +++ = plenty; details: non-diabetic Lewis rats, 2,000 IE pig islets, day +12 post transplant
Text: Pancreata were removed from donor outbred female pigs, >2 years old, by standard surgical technique. Following removal, pancreata were perfused with Liberase HI (Roche Diagnostics Corp., Indianapolis, Ind., U.S.A., Cat. No. 1666720) for intraductal distension. Islet cells were dissociated from the perfused pancreata by the automated method. Cleaved islets were separated from non-islet tissue by continuous OptiPrep gradients (Accurate Chemical and Scientific Corp., Westbury, N.Y., U.S.A., Cat. No. AN-1030061) on a COBE 2991 cell separator (Gambro BCT International, Lakewood, Colo., U.S.A.). The resulting free floating, purified islet cells were cultured in M199 medium supplemented with 20% donor pig serum for 48 hours at 37° C.
Transplantation was conducted by standard surgical technique. Briefly, the recipient animals, non-diabetic inbred male Lewis rats weighing 250-270 grams, were anesthetized with Telazol 0.20 mg/kg BW, administered i.m. In addition, the analgesic buprinorphine was administered s.c. to the recipient animals. Transplantation was conducted by making a left flank incision on the recipient, into which 2,000 donor islet equivalents (IE) were injected under the left kidney capsule via PE-50 tubing according to standard procedure.
(§1) In this study, recipients were administered the following immunosuppressive drugs: anti-CD40L mAb AH.F5 (Biogen, Inc., Cambridge, Mass., U.S.A.; 12 mg/kg BW, administered i.p. on day—1, 0, 1, 7, and then twice weekly); non-depleting anti-CD4 mAb RIB 5/2 (20 mg/kg BW, administered i.p. on day—1, 0, 1, 2, 3, 5, and then twice weekly); Ha4/8, a non-specific control to anti-CD40L (12 mg/kg BW, administered i.p. on day—1, 0, 1, 7, and then twice weekly); and FK-506 (Prograf, Fujisawa, Inc.; diluted to 1.25 mg/ml in sterile water, 0.3 mg/kg BW, administered i.m. daily from day—2, i.e., 2 days prior to transplant).
Animals were sacrificed by intracardiac exsanguination after ether anesthesia on day +12 post transplant for histological analysis of the graft. Kidneys bearing xenografts were harvested, snap frozen in liquid nitrogen and stored at −70° C.
The following primary Abs were used for immunohistochemical analysis: W3/24 (anti-CD4; available from Pharmingen) W3/13 (anti-CD3; available from Pharmingen); OX-8 (anti-CD8; available from Pharmingen); NK1.2.3 (anti-NK cell; available from Pharmingen); OX-33 (anti-B cell; available from Serotec); ED1 (anti-CD68/macrophages; available from Serotec); and insulin from Dako. The immunohistochemical analysis was visualized by an avidin-biotin-peroxidase complex method and AEC as chromogen. In the case of a positive immunoreaction, a red-brown precipitate developed.

[2] = system: Lewis rats; assay: Toxicity / body weight of recipients (Example 1); assay type: in vivo; details: when FK506 (0.3 mg/kg BW) was added, 12 days follow up
Method: as §1
Control animals increased on average 15% in weight. All antibody treated animals (alone or in combination, but without FK506) increased weight parallel to untreated controls. […] This toxicity is significant, considering that the follow up was only 12 days and that the dose of FK506 (0.3 mg/kg BW) is equal or lower than in studies reporting no toxicity.

## C=CC[C@@H]1/C=C(\C)C[C@H](C)C[C@H](OC)[C@H]2O[C@@](O)(C(=O)C(=O)N3CCCC[C@H]3C(=O)O[C@H](/C(C)=C/[C@@H]3CC[C@@H](O)[C@H](OC)C3)[C@H](C)[C@@H](O)CC1=O)[C@H](C)C[C@@H]2OC [FK, FK-506]
[1]
  CD3 (Tcells) leukocytic infiltration (IHC): ++
  CD4 leukocytic infiltration (IHC): ++
  CD8 leukocytic infiltration (IHC): +
  ED1 (CD68) leukocytic infiltration (IHC): +
  Insulin staining of graft: ++
  OX33 (B cells) leukocytic infiltration (IHC): +
[2]
  body weight lost: around 5%
